One assay concerns the target T1, HA-RXFP3 245A (Homo sapiens, UniProt Q9NSD7, E245A).
T1 construct: expressed in transfected cells; host or cells: HEK-293T
T1 sequence (Q9NSD7 2-469 E245A limits assumed): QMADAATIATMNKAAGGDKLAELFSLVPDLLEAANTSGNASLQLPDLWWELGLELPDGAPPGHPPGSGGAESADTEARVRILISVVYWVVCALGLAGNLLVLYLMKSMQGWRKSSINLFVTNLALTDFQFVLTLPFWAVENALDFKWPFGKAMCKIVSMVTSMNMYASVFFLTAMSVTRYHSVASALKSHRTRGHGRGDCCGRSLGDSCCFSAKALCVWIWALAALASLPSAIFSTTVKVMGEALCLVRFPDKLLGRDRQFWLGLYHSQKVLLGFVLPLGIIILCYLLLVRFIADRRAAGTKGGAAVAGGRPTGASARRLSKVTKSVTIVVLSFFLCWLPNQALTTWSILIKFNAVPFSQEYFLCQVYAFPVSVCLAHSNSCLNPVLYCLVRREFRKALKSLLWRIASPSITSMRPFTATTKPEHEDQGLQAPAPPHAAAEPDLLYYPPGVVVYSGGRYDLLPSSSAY
The assay is described as follows: Competition binding with Eu-H3/I5, HA-RXFP3 E245A. As for the experimental part: (§1) PCR reactions and cloning were undertaken as previously described ([Scott et al., 2006], [2012]).
(§2) The same protocol was used to prepare DNA templates of all Glu/Asp to Ala mutants, entailing a single codon change except for D47A/E51A, E55A/D58A, and E141A/D145A which required a double codon change both to Ala. The forward and reverse primers for all mutants are listed in Table 1 and mutagenesis reactions on pcDNA3.1zeo (+)-HA-RXFP3 were performed as previously described ([Scott et al., 2006]; [Yan et al., 2008]). […]
(§3) HEK-293T cells were transfected in 96 well optiplates (Perkin Elmer) with plasmids encoding the constructs of interest and Eu-H3/I5 binding assays conducted as described previously ([Luo et al., 2010]; [Haugaard-Kedstrom et al., 2011]). […] Binding data are expressed as mean ± standard error of mean (SEM) of % specific binding of triplicate measurements pooled from at least three independent experiments. Data were analyzed using Graphpad PRISM (Graphpad Inc.) and a non-linear regression one-site binding model was used to plot curves and calculate pIC50 values. […] The HA epitope was detected using a purified mouse monoclonal anti-HA antibody [HA.11(16B12), Covance] and a Alexafluor488-labeled goat anti mouse IgG (Invitrogen) in cell surface expression assays that were performed in 24 well plates as previously described ([Yan et al., 2008]). […]

The target of a further assay is T2, HA-RXFP3 ∆1–33 (Homo sapiens, UniProt Q9NSD7).
T2 construct: expressed in transfected cells; host or cells: HEK-293T
T2 sequence (Q9NSD7 34-469): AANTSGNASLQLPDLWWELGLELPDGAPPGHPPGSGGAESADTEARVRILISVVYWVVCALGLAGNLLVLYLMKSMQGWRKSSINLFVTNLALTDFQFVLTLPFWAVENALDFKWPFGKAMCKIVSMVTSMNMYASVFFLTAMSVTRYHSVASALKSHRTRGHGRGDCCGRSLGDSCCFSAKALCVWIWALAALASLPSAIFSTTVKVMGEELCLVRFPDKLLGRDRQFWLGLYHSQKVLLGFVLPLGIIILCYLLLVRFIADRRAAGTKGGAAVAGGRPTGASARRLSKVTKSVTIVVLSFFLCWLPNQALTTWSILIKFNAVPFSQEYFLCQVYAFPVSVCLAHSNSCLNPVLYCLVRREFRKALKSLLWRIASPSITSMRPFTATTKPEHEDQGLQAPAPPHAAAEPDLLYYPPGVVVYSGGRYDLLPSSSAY
The assay is described as follows: Competition binding with Eu-H3/I5, HA-RXFP3 ∆1–33.
From the text: as §1
A pcDNA3.1zeo (+) vector with a start codon and HA tag (pcDNA3.1zeo (+)-HA) was produced by ligating a double stranded primer containing a BamHI site at the 5′ end followed by a start codon and HA tag and then a EcoRV blunt site at the 3′ end (Table 2) into a pcDNA3.1zeo (+) vector cut with BamHI and EcoRV. […]
HEK-293T cells were transfected in 96 well optiplates (Perkin Elmer) with plasmids encoding the constructs of interest and Eu-H3/I5 binding assays conducted as described previously ([Luo et al., 2010]; [Haugaard-Kedstrom et al., 2011]). […] Binding data are expressed as mean ± standard error of mean (SEM) of % specific binding of triplicate measurements pooled from at least three independent experiments. Data were analyzed using Graphpad PRISM (Graphpad Inc.) and a non-linear regression one-site binding model was used to plot curves and calculate pIC50 values. […] The HA epitope was detected using a purified mouse monoclonal anti-HA antibody [HA.11(16B12), Covance] and a Alexafluor488-labeled goat anti mouse IgG (Invitrogen) in cell surface expression assays that were performed in 24 well plates as previously described ([Yan et al., 2008]). […] Pooled data were analyzed using one-way ANOVA coupled to Newman–Keuls multiple comparison test for multiple group comparison.

In the next assay the target is T3, HA-RXFP3 D75A (Homo sapiens, UniProt Q9NSD7, D75A).
T3 construct: expressed in transfected cells; host or cells: HEK-293T
T3 sequence (Q9NSD7 2-469 D75A limits assumed): T1 sequence (Q9NSD7 2-469 E245A limits assumed) with D74A, A244E
The assay is described as follows: Competition binding with Eu-H3/I5, HA-RXFP3 D75A. Here is the method: as §1, §2, §3

Substitutions are numbered along the chain they refer to. Entries after “also recorded” stand apart in the source; their conditions may differ.

The term IC50 denotes the midpoint of a concentration-inhibition curve. Take `CC[C@H](C)[C@@H]1NC(=O)[C@H](Cc2ccccc2)NC(=O)[C@H](CCC(=O)O)NC(=O)[C@H](CCCNC(=N)N)NC(=O)CNC(=O)[C@@H](NC(=O)[C@H](CC(C)C)NC(=O)[C@H](CCCNC(=N)N)NC(=O)[C@@H](NC(=O)CNC(=O)[C@H](Cc2ccc(O)cc2)NC(=O)[C@@H]2CCCN2C(=O)[C@H](C)NC(=O)[C@H](C)NC(=O)[C@@H](N)CCCNC(=N)N)C(C)C)CSSC[C@@H]2NC(=O)[C@@H](NC(=O)[C@H](CO)NC(=O)[C@H](CO)NC(=O)[C@H](CO)NC(=O)[C@H](CC(C)C)NC(=O)CNC(=O)[C@H](C)NC(=O)[C@H](CC(C)C)NC(=O)[C@@H](NC(=O)[C@@H](N)CC(=O)O)C(C)C)CSSC[C@H](NC(=O)CNC(=O)[C@H](Cc3c[nH]c4ccccc34)NC(=O)[C@H](CCCCN)NC2=O)C(=O)N[C@@H](CO)C(=O)N[C@@H](CCCCN)C(=O)N[C@@H](CO)C(=O)N[C@@H](CCC(=O)O)C(=O)N[C@@H]([C@@H](C)CC)C(=O)N[C@@H](CO)C(=O)N[C@@H](CO)C(=O)N[C@@H](CC(C)C)C(=O)N[C@H](C(=O)O)CSSC[C@@H](C(=O)NCC(=O)NCC(=O)N[C@@H](CO)C(=O)N[C@@H](CCCNC(=N)N)C(=O)N[C@@H](Cc2c[nH]c3ccccc23)C(=O)O)NC(=O)[C@H]([C@@H](C)O)NC(=O)[C@H](Cc2ccccc2)NC(=O)[C@H]([C@@H](C)CC)NC(=O)[C@H](C(C)C)NC(=O)[C@H](C)NC(=O)[C@H](CCCNC(=N)N)NC1=O` [H3 relaxin]: the IC50 at HA-RXFP3 245A is 44.7 nM; at HA-RXFP3 ∆1–33, 14.8 nM; on HA-RXFP3 D75A, 20 nM. Also, the “affinity compared with HA-RXFP3” value on HA-RXFP3 245A (competition binding, p > 0.05) was “slightly lower H3 relaxin binding affinity but this was not significantly different from HA-RXFP3; also recorded: no significant difference in H3 relaxin affinity; also recorded: did not show a significant drop in binding”; on HA-RXFP3 D75A (competition binding), “no significant difference in the affinity”. At HA-RXFP3 ∆1–33 (vs HA-RXFP3, competition binding), the “effect on affinity of truncation” value was “no significant effect on the affinity”.
